The nature of data set [1]: Particle size analysis of Compound A nanosuspension / microsuspension formulations. The following applies: jet mill feed pressure 4.5 bar, milling pressure 5.0 bar, before ball milling. It counts as physicochemical. As for the experimental part:
Milling was performed in a high energy ball mill with suitable sized-spherical, polymeric or Zirconium oxide beads. Compound A and excipient(s) as indicated in Table 1 were combined in deionized water per the indicated batch size and transferred to the milling chamber. Nanosuspensions A through D were generated utilizing process conditions denoted in Table 2.
Compound A was first mechanically jet-milled to reduce initial particle size prior to ball milling. The jet mill feed pressure was 4.5 bar and milling pressure was 5.0 bar. The resulting particle size of jet milled Compound A was 5-6 microns […]. […]
Compound A in a concentration range of between about 20 mg/mL to about 100 mg/mL (2-10% w/w), along with parenteral grade olive oil and 1% sorbitan monooleate [SPAN®80], was nano-milled using a high energy mill at 3000 rpm with 0.3 mm beads or 0.65 mm beads to produce microsuspensions. […] Performance of an amorphous microsuspension of Compound A was evaluated in Male SD rats. […] At each time point, approximately 0.2 mL blood was collected via jugular vein and analyzed by LC-MS/MS for mean plasma concentration of Compound A (FIG. 4). Pharmacokinetics determined that a target Cmin of 3 ng/mL was desired, which is denoted by the black dashed line in FIG. 4. […]

Data set [2] deals with SYO-1 human biphasic synovial sarcoma tumor cells. Put plainly: Nanosuspension mouse efficacy study, SYO-1 xenograft tumor volume. It counts as in vivo. The conditions noted are these: SYO-1 xenograft mice, Cohorts 2-8, IV, SC, IM, 1-200 mg/kg, over 4 weeks, FIG. 3B. As for the experimental part: (§1) Each mouse was inoculated subcutaneously on the right flank with a single cell suspension of SYO-1 human biphasic synovial sarcoma tumor cells (5×10^6) in 100 μL DMEM with 10% FBS for the tumor development. Treatment (Table 6) was started when mean tumor volume reached about 100-150 mm^3 for the efficacy cohorts. Based on the tumor volume, mice were randomly assigned to respective groups using a computer-generated randomization procedure. Corresponding formulations are in Table 6. For each dosing cohort, dosing volume was calculated based on concentration of the formulation and dose volume (ml/kg). Vehicle for IV was 20% HP-β-CD in 5 mM citrate buffer of pH 3, with adjustment to a final PH of 5. Body weight of all animals was measured and recorded twice a week throughout the study. The measurement of tumor size was conducted twice a week with a caliper and recorded. Tumor volume was used for calculation of tumor growth inhibition (TGI) value of the tumors in the treated and the control cohorts, respectively, on a given day after tumor inoculation.
64 plasma samples were collected at two time points (672 h and 676 h) from efficacy study cohorts. 64 tumor samples were collected at two time points (672 h and 676 h) from efficacy cohorts 1-8 and cut into 3 pieces: one piece for PK analysis, one piece for WB analysis (BRD9), and one piece snap frozen for further analysis (n=4). […]

A short description of data set [3]: Body weight / tolerability in mouse efficacy study. It counts as in vivo. The conditions noted are these: tumor-bearing mice, all doses and all modes of administration, 4 weeks, FIG. 3A. As to the method:
as §1

The structures appear in SMILES notation.

The record followed here is US20260224559A1, “FORMULATIONS FOR TREATING CANCER” (FOGHORN THERAPEUTICS INC., priority 2023, published 2026).

Consider `COc1cc(-c2cn(C)c(=O)c3cnc(N4CCC4)cc23)cc(OC)c1CN1CCC(CN2CCC3(CC2)CN(c2ccc4c(c2)C(=O)N(C2CCC(=O)NC2=O)C4)C3)CC1` (stereo not drawn) [Compound A, 3-(6-(7-((1-(4-(6-(azetidin-1-yl)-2-methyl-1-oxo-1,2-dihydro-2,7-naphthyridin-4-yl)-2,6-dimethoxybenzyl)piperidin-4-yl)methyl)-2,7-diazaspiro[3.5]nonan-2-yl)-1-oxoisoindolin-2-yl)piperidine-2,6-dione], for which the “particle size (D50) of jet milled Compound A” value in data set [1] is reported as 5-6 microns. Further, the “tumor growth (tumor volume) versus Vehicle control” value in data set [2] is “slowed tumor growth significantly”. In addition, the body weight result in data set [3] was “remaining fairly constant”.
